Tested on: milk-induced eosinophilia and leukocytosis
Assay: Milk-induced eosinophilia and leukocytosis in mice
Assay type: in vivo, Swiss albino mice
Conditions: for Eosinophil (mean ± SD), post-treatment / Total leucocyte count (mean ± SD), post-treatment: 24 h after dosing, p.o. 1 h before boiled and cooled milk 4 ml/kg s.c., polyherbal extract 307 mg/kg, levocetirizine 0.9 mg/kg, fexofenadine 21 mg/kg; for Eosinophil (mean ± SD), pre-treatment / Total leucocyte count (mean ± SD), pre-treatment: before treatment, 6 mice/group
Description: The composition of the present invention was assessed using milk-induced cosinophilia and leukocytosis animal model to evaluate the anti-inflammatory activity.
Injection of milk into mice induces allergy response which in turn causes leucocytosis. Leukocytosis is the condition of having a high number of leukocytes in the blood. Leukocytes are white blood cells. Leukocytosis may be a temporary response to an allergy, infection or an injury as the body is healing naturally, or it can be a sign of disease.
Study was conducted to check the effect of extracts on milk-induced eosinophilia and leukocytosis in mice, by determining the count of eosinophils and leukocytes. For this model, 54 Swiss albino mice weighing in the range of 20-25 gm were used and divided in nine groups (6 mice/group). The eosinophils and leukocyte count was checked before and after treatment i.e. 24 hours after dosing with polyherbal formulation and standard drugs.
All the animals were maintained in the animal house under standard conditions: temperature (24±1° C.), relative humidity (45-55%), light (12 h) and dark (12 h) cycle, and were allowed free access to food and water ad libitum. After one-week acclimatization in the animal house, the animals were used for the experiments.
Polyherbal extract containing Nigella sativa 88 mg/kg, Tinospora cordifolia 158 mg/kg, Petasites hybridus 26 mg/kg and Perilla frutescens 35 mg/kg was suspended in carboxy methyl cellulose. The suspension thus contained 307 mg/kg of the extract.
Similarly, standard drugs levocetirizine and fexofenadine were prepared as per requirement
The treatment of polyherbal extract and standard drug formulation were given orally 1 hour prior to injection of boiled and cooled milk. After 24 hours, blood samples were collected from retro orbital plexus, under ketamine xylazine anesthesia. Total eosinophil and differential leukocyte count per cu·mm was anlysed using hematology analyzer before and after treatment.

Compound | Eosinophil (mean ± SD), post-treatment | Total leucocyte count (mean ± SD), post-treatment | Eosinophil (mean ± SD), pre-treatment | Total leucocyte count (mean ± SD), pre-treatment
CC(C)(C(=O)O)c1ccc(C(O)CCCN2CCC(C(O)(c3ccccc3)c3ccccc3)CC2)cc1 (centres unmarked) [Fexofenadine] | 0.183 ± 0.075 10^3/μL | 6.917 ± 0.436 10^3/μL | 0.17 ± 0.08 10^3/μL | 7.87 ± 0.72 10^3/μL
O=C(O)COCCN1CCN([C@H](c2ccccc2)c2ccc(Cl)cc2)CC1 [Levocetirizine] | 0.167 ± 0.082 10^3/μL | 6.950 ± 1.089 10^3/μL | 0.18 ± 0.08 10^3/μL | 6.95 ± 1.57 10^3/μL

— patent US20260021154A1, “HERBAL ANTI-INFAMMATORY COMPOSITION” (CIRA HERBALS LLP, priority 2022, published 2026)
